According to ChEMBL document CHEMBL4414621, “Thiohydantoin and Hydantoin Derivatives from the Roots of Armoracia rusticana and Their Neurotrophic and Anti-neuroinflammatory Activities” (J Nat Prod, 2019):

Legend:
C6 = assay: Neuroprotective activity in rat C6 cells assessed as NGF secretion at 20 uM incubated for 24 hrs by ELISA relative to control; assay type: functional
[1] = Cytotoxicity against rat C6 cells assessed as cell viability at 20 uM incubated for 24 hrs by MTT assay relative to control; assay type: cell-based; conditions: read-out: Activity
BV-2 = assay: Antineuroinflammatory activity against mouse BV2 cells assessed as inhibition in LPS-induced NO production preincubated for 30 mins followed b LPS addition and measured after 24 hr by griess reagent based assay; assay type: functional, cell-based

Row | Structure (SMILES) | Activity (C6) | viability at 24 h, 20 µM [1] | IC50 (BV-2)
1 | C=CCN1C(=O)N2CCC[C@]2(O)C1=O | 141.99% | 100% | –
2 | CCCCC/C=C/C(=O)CCc1ccc(O)c(OC)c1 [SHOGAOL] | 140.69% | 111% | –
3 | CSC1=NC[C@]2(S1)C(=O)Nc1ccccc12 | 96.3% | 88.2% | –
4 | O=C1N(CCc2ccccc2)C(=O)[C@@]2(O)CCCN12 | 115.13% | 106% | –
5 | O=C1N(CCc2ccccc2)C(=S)N2CCC[C@@]12O | 75.08% | 112% | –
6 | O=C1N(CCc2ccccc2)C(=S)N2CCC[C@]12O | 100.68% | 108% | –
7 | CNC(=N)NCCC[C@H](N)C(=O)O [TILARGININE] | – | – | 21.9 µM
8 | C=CCN1C(=O)[C@@]2(O)CCCN2C1=S | 153.59% | 114% | –
9 | O=C1C2CCCN2C(=S)N1Cc1ccccc1 (stereo not drawn) | 105.88% | 109% | –
10 | O=C1N(CCc2ccccc2)C(=O)[C@]2(O)CCCN12 | 98.7% | 91.2% | –
11 | NC(=O)NCCc1ccccc1 | 105.82% | 107% | 32.6 µM
12 | C=CCN1C(=O)N2CCC[C@@]2(O)C1=O | 110.66% | 97.3% | –
13 | C=CCN1C(=O)[C@]2(O)CCCN2C1=S | 93.41% | 106% | –
14 | O=C1[C@@H]2CCCN2C(=O)N1CCc1ccccc1 | 111.26% | 111% | –
